Assay results as given in the NIST ThermoML archive (doi:10.1021/je034066w).
Numbers after ± are expanded uncertainties.

Conditions: Liquid

CC(C)O [propan-2-ol]
Critical pressure (Direct measurement): 4755 ± 48 kPa
Critical temperature (Visual observation in a stirred cell): 508.15 ± 0.12 K
